# From patent US8420675B2, “Aminotetrahydroindazoloacetic acids” (Hoffmann-La Roche Inc., priority 2008, dated 2013)
# Target: T1, human CRTH2 (Homo sapiens, UniProt Q9Y5Y4)
# T1 construct: expressed in transfected cells
# T1 sequence (Q9Y5Y4 1-395): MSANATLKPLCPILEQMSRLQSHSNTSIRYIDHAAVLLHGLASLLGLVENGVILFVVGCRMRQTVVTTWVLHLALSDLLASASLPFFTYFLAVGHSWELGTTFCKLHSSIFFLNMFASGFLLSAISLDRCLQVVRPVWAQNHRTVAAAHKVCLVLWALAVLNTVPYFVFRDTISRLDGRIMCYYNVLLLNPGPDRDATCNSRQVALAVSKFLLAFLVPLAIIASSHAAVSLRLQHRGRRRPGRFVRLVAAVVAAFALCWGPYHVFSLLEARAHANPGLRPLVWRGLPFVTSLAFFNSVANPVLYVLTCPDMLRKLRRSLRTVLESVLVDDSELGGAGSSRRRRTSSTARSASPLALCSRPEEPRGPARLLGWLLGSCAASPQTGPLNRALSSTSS
# Experiment: Human CRTH2 Receptor Binding Assay (whole cell, [3H]ramatroban competition)
# Conditions: CHO-K1 cells expressing human CRTH2 and G-alpha16; 20 nM [3H]ramatroban; 1 hour, room temperature
# Text: A whole cell receptor binding assay using [^3H]ramatroban as the competing radioactive ligand was employed to evaluate the compound binding activity to human CRTH2. The radioactive ligand [^3H]ramatroban was synthesized according to Sugimoto et. al. (Eur. J. Pharmacol. 524, 30-37, 2005) to a specific activity of 42 Ci/mmol.
# A cell line stably expressing human CRTH2 was established by transfecting CHO-K1 cells with two mammalian expression vectors that harbored human CRTH2 and G-alpha16 cDNAs, respectively, using FuGene® 6 transfection reagent (from Roche). Stable clones expressing CRTH2 were selected by staining each clone with BM16 (BD Pharmingen™ from BD Biosciences, a division of Becton, Dickinson and Company), which is a rat monoclonal antibody to human CRTH2. The cells were maintained as monolayer cultures in Ham's F-12 medium containing 10% fetal bovine serum, 100 units/mL penicillin, 100 μg/mL streptomycin, 2 mM glutamine, 0.5 mg/mL G418 (geneticin) for CRTH2, and 0.2 mg/mL hygromycin-B (for G-alpha 16). For whole cell receptor binding assay, the monolayer cells were rinsed once with PBS (phosphate buffered saline), dissociated using ethylenediaminetetraacetate (Versene™ EDTA Lonza Inc.), and suspended in PBS containing 10 mM MgCl2 and 0.06% BSA (bovine serum albumin) at 1.5×10^6 cells/mL.
# The binding reactions (0.2 mL) were performed in 96-well plates at room temperature in PBS containing 1.5×10^5 cells, 10 mM MgCl2, 0.06% BSA, 20 nM [^3H]ramatroban, and test compound at various concentrations. After 1 hour of binding reactions, the cells were harvested on GF™/B filter microplates (microtiter plates with embedded glass fiber from PerkinElmer, Inc.) and washed 5 times with PBS using a Filtermate™ Harvester (a cell harvester that harvests and washes cells from microplates from PerkinElmer, Inc.). The radioactivities bound to the cells were determined using a microplate scintillation counter (TopCount® NXT, from PerkinElmer, Inc.) after adding 50 μL of Microscint™ 20 scintillation fluid (from PerkinElmer, Inc.) to each well of the filter plates. The radioactivity from non-specific binding was determined by replacing compound with 10 μM of 15(R)-15-methyl PGD2 (from Cayman Chemical Company) in the reaction mixtures. The radioactivity bound to the cells in the absence of compound (total binding) was determined by replacing compound with 0.25% of DMSO (dimethyl sulfoxide) in the reaction mixture. Specific binding data were obtained by subtracting the radioactivity of non-specific binding from each binding data.
# The IC50 value is defined as the concentration of the tested compound that is required for 50% inhibition of total specific binding. In order to calculate the IC50 value, the percent inhibition data were determined for 7 concentrations for each compound. The percent inhibition for a compound at each concentration was calculated according to the following formula, [1-(specific binding in the presence of compound)/(total specific binding)]x100. The IC50 value was then obtained by fitting the percent inhibition data to a sigmoidal dose-response (4 parameter logistic) model in the XLfit® software Excel add-in program [from ID Business Solutions Ltd., model 205, where F(x)=(A+(B−A)/(1+((C/x)^D)))].
row,SMILES,IC50
1,"Cc1ccc(Oc2ncc(S(=O)(=O)NC3CCCc4c3cnn4CC(=O)O)cc2Br)cc1 (stereo not drawn) [Example 2-6a, [4-(5-Bromo-6-p-tolyloxy-pyridine-3-sulfonylamino)-4,5,6,7-tetrahydro-indazol-1-yl]-acetic acid]",0.0264 µM
2,"O=C(O)Cn1ncc2c1CCC[C@H]2NS(=O)(=O)c1ccc(-c2ccccc2)cc1 [Example 1-2a, [(R)-4-(Biphenyl-4-sulfonylamino)-4,5,6,7-tetrahydro-indazol-1-yl]-acetic acid]",0.0936 µM
3,"CCOc1ccc(-c2ccc(S(=O)(=O)NC3CCCc4c3cnn4CC(=O)O)cc2)cc1 (stereo not drawn) [Example 10-3a, [4-(4′-Ethoxy-biphenyl-4-sulfonylamino)-4,5,6,7-tetrahydro-indazol-1-yl]-acetic acid]",0.194 µM
4,"O=C(O)CCn1ncc2c1CCC[C@H]2NS(=O)(=O)c1ccc(-c2cccc(C(F)(F)F)c2)cc1 [Example 10-31a, 3-[(R)-4-(3′-Trifluoromethyl-biphenyl-4-sulfonylamino)-4,5,6,7-tetrahydro-indazol-1-yl]-propionic acid]",0.0056 µM
5,"O=C(O)Cn1ncc2c1CCCC2NS(=O)(=O)c1cnc(Oc2cccc(Cl)c2)c(Br)c1 (stereo not drawn) [Example 2-3a, {4-[5-Bromo-6-(3-chloro-phenoxy)-pyridine-3-sulfonylamino]-4,5,6,7-tetrahydro-indazol-1-yl}-acetic acid]",0.0194 µM
6,"CN([C@@H]1CCCc2c1cnn2CC(=O)O)S(=O)(=O)c1ccc(Oc2ccc(F)cc2)c(C(F)(F)F)c1 [Example 9-41a, ((R)-4-{[4-(4-Fluoro-phenoxy)-3-trifluoromethyl-benzenesulfonyl]-methyl-amino}-4,5,6,7-tetrahydro-indazol-1-yl)-acetic acid]",0.0075 µM
7,"C[S+]([O-])c1cccc(-c2ccc(S(=O)(=O)N[C@@H]3CCCc4c3cnn4CC(=O)O)cc2)c1 (stereo partly drawn) [Example 10-29a, [(R)-4-(3′-Methanesulfinyl-biphenyl-4-sulfonylamino)-4,5,6,7-tetrahydro-indazol-1-yl]-acetic acid]",0.0275 µM
8,"Cc1cc(S(=O)(=O)NC2CCCc3c2cnn3CC(=O)O)cnc1Oc1ccc(Cl)cc1 (stereo not drawn) [Example 3-1a, {4-[6-(4-Chloro-phenoxy)-5-methyl-pyridine-3-sulfonylamino]-4,5,6,7-tetrahydro-indazol-1-yl}-acetic acid]",0.0349 µM
9,"Cc1cc(S(=O)(=O)N(C)[C@@H]2CCCc3c2cnn3CC(=O)O)ccc1Oc1ccc(F)cc1 [Example 9-35a, ((R)-4-{[4-(4-Fluoro-phenoxy)-3-methyl-benzenesulfonyl]-methyl-amino}-4,5,6,7-tetrahydro-indazol-1-yl)-acetic acid]",0.0171 µM
10,"O=C(O)Cn1ncc2c1CCCC2NS(=O)(=O)c1ccc(-c2ccc(Cl)cc2)cc1 (stereo not drawn) [Example 10-6a, [4-(4′-Chloro-biphenyl-4-sulfonylamino)-4,5,6,7-tetrahydro-indazol-1-yl]-acetic acid]",0.207 µM
11,"CN([C@@H]1CCCc2c1cnn2CC(=O)O)S(=O)(=O)c1cc(C(F)(F)F)cc(S(=O)(=O)c2ccc(Cl)cc2)c1 [Example 13-1a, ((R)-4-{[3-(4-Chloro-benzenesulfonyl)-5-trifluoromethyl-benzenesulfonyl]-methylamino}-4,5,6,7-tetrahydro-indazol-1-yl)-acetic acid]",0.0029 µM
12,"COc1ccc(S(=O)(=O)c2cc(C(F)(F)F)cc(S(=O)(=O)N(C)[C@@H]3CCCc4c3cnn4CCC(=O)O)c2)cc1 [Example 13-5a, 3-((R)-4-{[3-(4-Methoxy-benzenesulfonyl)-5-trifluoromethyl-benzenesulfonyl]-methyl-amino}-4,5,6,7-tetrahydro-indazol-1-yl)-propionic acid]",0.0058 µM
13,"O=C(O)Cn1ncc2c1CCCC2NS(=O)(=O)c1cnc(Oc2ccc(F)c(F)c2)c(Br)c1 (stereo not drawn) [Example 2-10a, {4-[5-Bromo-6-(3,4-difluoro-phenoxy)-pyridine-3-sulfonylamino]-4,5,6,7-tetrahydro-indazol-1-yl}-acetic acid]",0.196 µM
14,"CC(C)Oc1cccc(-c2ccc(S(=O)(=O)NC3CCCc4c3cnn4CC(=O)O)cc2)c1 (stereo not drawn) [Example 10-21a, [4-(3′-Isopropoxy-biphenyl-4-sulfonylamino)-4,5,6,7-tetrahydro-indazol-1-yl]-acetic acid]",0.12 µM
15,"O=C(O)Cn1ncc2c1CCCC2NS(=O)(=O)c1cccc(NS(=O)(=O)c2ccccc2)c1 (stereo not drawn) [Example 15-1a, [4-(3-Benzenesulfonylamino-benzenesulfonylamino)-4,5,6,7-tetrahydro-indazol-1-yl]-acetic acid]",0.36 µM
16,"O=C(O)Cn1ncc2c1CCCC2NS(=O)(=O)c1cccc(-c2ccccc2Cl)c1 (stereo not drawn) [Example 10-12a, [4-(2′-Chloro-biphenyl-3-sulfonylamino)-4,5,6,7-tetrahydro-indazol-1-yl]-acetic acid]",0.311 µM

# More lines, now with the values ahead:
row,IC50,SMILES
1,0.008 µM,"CN([C@@H]1CCCc2c1cnn2CC(=O)O)S(=O)(=O)c1ccc(Oc2ccc(F)cc2Cl)c(Cl)c1 [Example 9-16a, ((R)-4-{[3-Chloro-4-(2-chloro-4-fluoro-phenoxy)-benzenesulfonyl]-methyl-amino}-4,5,6,7-tetrahydro-indazol-1-yl)-acetic acid]"
2,0.0187 µM,"CN([C@@H]1CCCc2c1cnn2CC(=O)O)S(=O)(=O)c1cnc(Oc2ccc(Cl)c(F)c2)c(Br)c1 [Example 6-10a, ((R)-4-{[5-Bromo-6-(4-chloro-3-fluoro-phenoxy)-pyridine-3-sulfonyl]-methyl-amino}-4,5,6,7-tetrahydro-indazol-1-yl)-acetic acid]"
3,0.0371 µM,"CN([C@@H]1CCCc2c1cnn2CC(=O)O)S(=O)(=O)c1ccc(Oc2ccc(Cl)cc2)cc1Cl [Example 9-4a, ((R)-4-{[2-Chloro-4-(4-chloro-phenoxy)-benzenesulfonyl]-methyl-amino}-4,5,6,7-tetrahydro-indazol-1-yl)-acetic acid]"
4,0.0914 µM,"CN([C@@H]1CCCc2c1cnn2CC(=O)O)S(=O)(=O)c1ccc(Oc2ccc(Cl)cc2Cl)cc1Cl [Example 9-8a, ((R)-4-{[2-Chloro-4-(2,4-dichloro-phenoxy)-benzenesulfonyl]-methyl-amino}-4,5,6,7-tetrahydro-indazol-1-yl)-acetic acid]"
5,0.0082 µM,"CN([C@@H]1CCCc2c1cnn2CC(=O)O)S(=O)(=O)c1ccc(Oc2ccc(Cl)cc2)c(C(F)(F)F)c1 [Example 9-5a, ((R)-4-{[4-(4-Chloro-phenoxy)-3-trifluoromethyl-benzenesulfonyl]-methyl-amino}-4,5,6,7-tetrahydro-indazol-1-yl)-acetic acid]"
6,0.0074 µM,"CN([C@@H]1CCCc2c1cnn2CC(=O)O)S(=O)(=O)c1ccc(Oc2ccc(Cl)cc2)c(F)c1 [Example 9-12a, ((R)-4-{[4-(4-Chloro-phenoxy)-3-fluoro-benzenesulfonyl]-methyl-amino}-4,5,6,7-tetrahydro-indazol-1-yl)-acetic acid]"
7,0.0049 µM,"CN([C@@H]1CCCc2c1cnn2CC(=O)O)S(=O)(=O)c1cnc(Oc2cc(Cl)ccc2Cl)c(Br)c1 [Example 6-5a, ((R)-4-{[5-Bromo-6-(2,5-dichloro-phenoxy)-pyridine-3-sulfonyl]-methyl-amino}-4,5,6,7-tetrahydro-indazol-1-yl)-acetic acid]"
8,0.0068 µM,"CN([C@@H]1CCCc2c1cnn2CC(=O)O)S(=O)(=O)c1cnc(Oc2ccc(F)cc2Cl)c(Br)c1 [Example 6-6a, ((R)-4-{[5-Bromo-6-(2-chloro-4-fluoro-phenoxy)-pyridine-3-sulfonyl]-methyl-amino}-4,5,6,7-tetrahydro-indazol-1-yl)-acetic acid]"
